Measurements: patent US8536343B2, “Arylamidine derivative, salt thereof and antifungal agent containing those” (Toyama Chemical Co., Ltd., priority 2005, dated 2013)

What was measured:
human CYP2C19 = target: T1, human CYP2C19 (Homo sapiens, UniProt P33261); experiment: Inhibitory effect on CYP2C19; type: in vitro ADME; details: microsome from insect cells expressing human CYP2C19, dibenzylfluorescein, 37° C. 30 min, 72 to 0.0329 μmol/L
T1 construct: host or cells: insect cells (microsomes)
Protocol: (§1) Inhibitory effects of the compound of Example 3 and Comparative Compound 1 on human hepatic drug-metabolizing enzyme CYP2C19 were compared. A microsome prepared from insect cells expressing human CYP2C19 was used. Dibenzylfluorescein was used as a substrate. The reaction was conducted in a phosphate buffer solution (100 mmol/L, pH 7.4) including final concentrations of 15 nmol/L for the enzyme, 1.0 μmol/L for the substrate, 1.55 mmol/L for nicotinamide adenine dinucleotide phosphate oxidized form (NADP+), 3.3 mmol/L for glucose-6-phosphate, 3.3 mmol/L for magnesium chloride and 0.4 Units/mL for glucose-6-phosphate dehydrogenase (G6PDH). The concentrations of the respective compounds in the reaction solution were prepared in a 3-fold dilution series with a final concentration range of 72 to 0.0329 μmol/L. The reaction solutions were incubated at 37° C. for 30 min. Then the reaction was terminated by a 2 mol/L sodium hydroxide aqueous solution, and the reactant was further incubated at 37° C. for 2 hours. The enzyme activity was determined by measuring fluorescence with wavelength of 535 nm using excitation wavelength of 485 nm. The inhibitory effect was represented as IC50. Tranylcypromine was used as a positive control.

[1] = system: Aspergillus fumigatus IFM46895; experiment: Murine Aspergillus infection model (oral administration); type: in vivo; details: cyclophosphamide-compromised male mice; 10 mg/kg orally, 7 times; observed 21 days after infection
Protocol: As Test Compounds, the compound of Example 3 and Comparative Compound 1 were used.
(§2) Spores of Aspergillus fumigatus IFM46895 were cultured on a potato dextrose agar medium at 30° C. for a week. The recovered spores were suspended in a sterile physiological saline solution containing 0.05% Tween 80, which was then diluted to prepare an inoculum solution.
(§3) Male mice (4 week-old, 5 mice/group) were administered intraperitoneally with 200 mg/kg of cyclophosphamide 4 days before infection and 100 mg/kg on the following day after the infection to obtain transient compromised condition. Each 0.2 mL of the inoculum solution was inoculated into the tail vein of each mouse to induce infection (about 1×10^5 CFU/mouse). The Test Compounds were dissolved in a small amount of 0.1 mol/L hydrochloric acid, and the solution was diluted with a sterile distilled water to obtain a 1 mg/mL solution. The solution was administered orally at the dose of 10 mL/kg body weight of mouse (10 mg/kg body weight). The administrations were conducted once 2 hours after the infection and once daily for the following 6 days, totaling 7 times. To a group receiving no Test Compounds, an equal amount of a sterile physiological saline solution was administered. Viability of the mice was observed and recorded for 21 days after infection.

Vero cells = experiment: Growth inhibition test on Vero cells (XTT); type: cell-based; details: 50 μg/mL, 3 days culture, XTT absorbance versus control
Protocol: As Test Compounds, the compounds of Example 1 and Example 2 and Comparative Compound 1 were used.
The cytotoxicity of the compounds was evaluated using Vero cells. The respective Test Compounds were dissolved in dimethylsulfoxide (DMSO) to prepare solutions at 10 mg/mL. The solutions were diluted with E′MEM with 10% FBS to a final concentration of 50 μg/mL and placed onto a 96-well plate. The cells were suspended in E′MEM with 10% FBS and seeded onto the 96-well plate at 3000 cells/well and then cultured in a CO2 incubator at 37° C. for 3 days. The growth of Vero cells was evaluated by an assay using 2,3-bis-(2-methoxy-4-nitro-5-sulfophenyl)-5-[(phenylamino)carbonyl]-2H-tetrazolium (inner salt) monosodium salt (“XTT”). Namely, an XTT solution containing 1 mg/mL of XTT and 25 μmol/L of phenazine methosulfate (PMS) was added to each well. After incubating in a CO2 incubator for 2 hours, the absorbance at 450 nm (reference at 655 nm) of the respective wells was measured by a microplate reader. The T/C (%) was calculated from the absorbance ratios of the control (without the Compound) and the respective wells.

human CYP2D6 = target: T2, human CYP2D6 (Homo sapiens, UniProt P10635); experiment: Inhibitory effect on CYP2D6; type: in vitro ADME; details: for IC50: microsome from insect cells expressing human CYP2D6, fluorescent substrate, 37° C. 30 min, 72 to 0.0329 μmol/L; for Inhibitory effect on CYP2D6 (in words): microsome from insect cells expressing human CYP2D6, 72 to 0.0329 μmol/L
T2 construct: host or cells: insect cells (microsomes)
Protocol: Inhibitory effects of the compound of Example 3, Comparative Compound 1, Comparative Compound 2 and Comparative Compound 3 on human hepatic drug-metabolizing enzyme CYP2D6 were compared. A microsome prepared from insect cells expressing human CYP2D6 was used, and a substrate was 3-[2-(N,N-diethyl-N-methylammonium)ethyl]-7-methoxy-4-methylcoumarin iodide. The reaction was conducted in a phosphate buffer solution (100 mmol/L, pH 7.4) including final concentrations of 20 nmol/L for the enzyme, 1.5 μmol/L for the substrate, 1.55 mmol/L for nicotinamide adenine dinucleotide phosphate oxidized form (NADP+), 3.3 mmol/L for glucose-6-phosphate, 3.3 mmol/L for magnesium chloride and 0.4 Units/mL for glucose-6-phosphate dehydrogenase (G6PDH). The concentrations of the respective compounds in the reaction solution were prepared in a 3-fold dilution series with a final concentration range of 72 to 0.0329 μmol/L. The reaction solutions were incubated at 37° C. for 30 min. Then the reaction was terminated by a 80% acetonitrile solution (containing tris at a final concentration of 0.1 mol/L), and the enzyme activity was determined by measuring fluorescence with wavelength of 465 nm using excitation wavelength of 400 nm. The inhibitory effect was expressed as IC50. Quinidine was used as a positive control.

human CYP3A4 = target: T3, human CYP3A4 (Homo sapiens, UniProt P08684); experiment: Inhibitory effect on CYP3A4; type: in vitro ADME; details: microsome from insect cells expressing human CYP3A4, dibenzylfluorescein, 37° C. 15 min, 72 to 0.0329 μmol/L
T3 construct: host or cells: insect cells (microsomes)
Protocol: as §1, with “CYP3A4” for “CYP2C19”, “2.5” for “15”, “15” for “30”, “solution” for “reactant”, “expressed” for “represented”, “Clotrimazole” for “Tranylcypromine”

[2] = Repeated intravenous dose toxicity study in mice (plasma AST, ALT); type: in vivo; details: ICR male mice, i.v. once daily for 3 days (25 mg/kg or 6.25 mg/kg), day 1 after completion; relative to saline control
Protocol: As Test Compounds, the compound of Example 3, Comparative Compound 2 and Comparative Compound 3 were used.
A repeated intravenous dose toxicity study was conducted using ICR strain male mice (6 week-old, 5 mice/group). The administration solutions were prepared by adding 3-fold molar amount of hydrochloric acid to the respective Test Compounds, and further adding a sterile physiological saline solution. The compounds of Example 3 and Comparative Compound 2, respectively at 25 mg/kg, and Comparative Compound 1 at 6.25 mg/kg were administered into the tail vein once daily for 3 days. To the control group, a sterile physiological saline solution was administered.
On day 1 after the completion of the administration, each mouse was etherized. Blood samples were taken from the abdominal vein using an injection syringe containing heparin as an anticoagulant (Novo-Heparin 1,000 units for injection, Aventis Pharma Ltd.), and the samples were centrifuged (3,300 rpm, 4° C., 10 min; Kubota Model 5900) to obtain the plasma. The blood biochemical tests with respect to aspartate aminotransferase (AST) and alanine aminotransferase (ALT) for the samples were conducted according to the JSCC consensus measuring method. The values for the Test Compounds and Comparative Compounds were calculated based on the values for the control (administration of a sterile physiological saline solution) as 100.

[3] = Acute toxicity study in mice (intravenous administration); type: in vivo; details: male mice, 50 mg/kg single intravenous dose
Protocol: The compound of Example 3 was dissolved in a small amount of 0.1 mol/L hydrochloric acid, and the solution was diluted with a sterile physiological saline solution to obtain a 5 mg/mL solution. The Test Compound solution was administered intravenously to male mice (4 week-old, 2 mice/group) at 10 mL/kg (50 mg/kg body weight) and the mice were observed until day 2 after administration.

[4] = system: Aspergillus fumigatus IFM46895; experiment: Murine Aspergillus infection model (subcutaneous administration); type: in vivo; details: cyclophosphamide-compromised male mice; 0.3 mg/kg subcutaneously, 7 times; observed 21 days after infection
Protocol: (§4) As a Test Compound, the compound of Example 3 was used.
as §2
as §3, with “Test Compound was” for “Test Compounds were”, “sterile physiological saline solution” for “sterile distilled water”, “a 0.03” for “a 1”, “administered subcutaneously” for “administered orally”, “mouse (0.3” for “mouse (10”, “Test Compound,” for “Test Compounds,”

[5] = system: Candida albicans TIMM 1623; experiment: Murine Candida infection model (subcutaneous administration); type: in vivo; details: cyclophosphamide-compromised male mice; 0.1 mg/kg subcutaneously, 4 times; observed 21 days after infection
Protocol: as §4
Male mice (4 week-old, 5 mice/group) were administered intraperitoneally with 200 mg/kg of cyclophosphamide 4 days before infection and 100 mg/kg on the following day after the infection to obtain transient compromised condition. Candida albicans TIMM 1623 cultured on SDA at 35° C. was suspended in a sterile physiological saline solution to prepare a suspension at 1.5×10^5 cells/mL. Each 0.2 mL of the solution was inoculated into the tail vein of each mouse to induce infection (about 3×10^4 CFU/mouse). The Test Compound was dissolved in a small amount of 0.1 mol/L hydrochloric acid, and the solution was diluted with a sterile physiological saline solution to obtain a 0.01 mg/mL solution. The solution was administered subcutaneously at the dose of 10 mL/kg body weight of mouse (0.1 mg/kg body weight). The administrations were conducted once 2 hours after the infection and once daily for the following consecutive 3 days, totaling 4 times. To a group receiving no Test Compound, an equal amount of a sterile physiological saline solution was administered. Viability of the mice was observed and recorded for 21 days after infection.

[6] = Acute toxicity study in mice (oral administration); type: in vivo; details: male mice, 1000 mg/kg single oral dose
Protocol: A 100 mg/mL suspension of the compound of Example 3 was prepared with 0.1 mol/L hydrochloric acid. The Test Compound solution was orally administered to male mice (6 week-old, 2 mice/group) at 10 mL/kg (1000 mg/kg body weight) and the mice were observed until day 2 after administration.

T2 sequence (P10635 whole entry): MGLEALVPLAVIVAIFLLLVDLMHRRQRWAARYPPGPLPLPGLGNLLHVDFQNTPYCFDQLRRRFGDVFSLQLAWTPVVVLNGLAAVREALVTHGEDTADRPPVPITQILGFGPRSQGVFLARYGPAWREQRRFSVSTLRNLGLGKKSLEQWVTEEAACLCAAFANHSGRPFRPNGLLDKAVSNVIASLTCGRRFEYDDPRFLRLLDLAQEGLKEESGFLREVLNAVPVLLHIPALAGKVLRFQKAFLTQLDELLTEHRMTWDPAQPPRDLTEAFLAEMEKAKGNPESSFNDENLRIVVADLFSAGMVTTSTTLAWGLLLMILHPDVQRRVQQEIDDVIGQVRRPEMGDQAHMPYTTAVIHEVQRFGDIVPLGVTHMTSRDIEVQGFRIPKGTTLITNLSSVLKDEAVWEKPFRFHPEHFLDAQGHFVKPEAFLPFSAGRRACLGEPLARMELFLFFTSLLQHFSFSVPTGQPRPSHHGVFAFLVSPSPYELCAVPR
T1 sequence (P33261 whole entry): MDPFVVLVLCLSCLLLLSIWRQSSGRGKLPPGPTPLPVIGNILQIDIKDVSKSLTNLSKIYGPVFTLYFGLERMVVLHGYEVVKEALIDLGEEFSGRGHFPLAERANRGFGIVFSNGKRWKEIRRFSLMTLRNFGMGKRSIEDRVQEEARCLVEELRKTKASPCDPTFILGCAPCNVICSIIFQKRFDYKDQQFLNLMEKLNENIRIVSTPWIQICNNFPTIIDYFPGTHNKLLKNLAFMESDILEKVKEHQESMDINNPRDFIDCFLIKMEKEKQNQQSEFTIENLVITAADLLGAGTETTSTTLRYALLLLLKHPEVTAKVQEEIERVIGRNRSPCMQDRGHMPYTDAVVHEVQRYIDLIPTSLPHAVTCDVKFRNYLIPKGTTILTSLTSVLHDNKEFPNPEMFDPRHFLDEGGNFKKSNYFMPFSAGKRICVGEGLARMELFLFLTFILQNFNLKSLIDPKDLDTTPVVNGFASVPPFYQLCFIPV
T3 sequence (P08684 whole entry): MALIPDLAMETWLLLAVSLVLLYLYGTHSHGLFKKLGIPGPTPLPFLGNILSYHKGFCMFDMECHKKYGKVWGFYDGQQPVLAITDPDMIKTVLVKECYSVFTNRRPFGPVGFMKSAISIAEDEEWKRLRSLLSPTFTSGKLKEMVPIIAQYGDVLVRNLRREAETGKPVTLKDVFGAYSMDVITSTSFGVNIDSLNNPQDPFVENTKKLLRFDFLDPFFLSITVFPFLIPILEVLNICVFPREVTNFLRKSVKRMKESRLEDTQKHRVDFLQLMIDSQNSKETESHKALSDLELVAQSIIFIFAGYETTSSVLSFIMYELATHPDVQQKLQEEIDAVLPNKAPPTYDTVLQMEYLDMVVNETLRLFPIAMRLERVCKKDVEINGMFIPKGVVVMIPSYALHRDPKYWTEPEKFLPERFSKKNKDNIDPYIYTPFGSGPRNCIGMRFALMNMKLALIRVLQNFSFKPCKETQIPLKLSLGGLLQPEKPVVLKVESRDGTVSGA

Inhibitory effect on CYP2D6 (in words) (human CYP2D6) | SMILES | IC50 (human CYP2C19) [µM] | mice survived [1] [%] | Cytotoxicity T/C (%) (Vero cells) | IC50 (human CYP2D6) [µM] | IC50 (human CYP3A4) [µM] | ALT (alanine aminotransferase) in plasma [2] | AST (aspartate aminotransferase) in plasma [2] | also measured
– | N/C(=N\C(=O)OCc1ccccc1)c1ccc(OCCCN2CCN(CCCOc3ccc(/C(N)=N/C(=O)OCc4ccccc4)cc3)CC2)cc1 [Comparative Compound 1, reference compound] | 4.36 | 20 | 1 | 0.68 | 4.73 | – | – | –
inhibited human CYP2D6 | CCOC(=O)/N=C(\N)c1ccc(OCCCC2CCN(CCCOc3ccc(/C(N)=N/C(=O)OCC)cc3)CC2)cc1 [Comparative Compound 2] | – | – | – | – | – | increases | increases | –
inhibited human CYP2D6 | CCCCCOC(=O)/N=C(\N)c1ccc(OCCCN2CCC(CCCOc3ccc(C(N)NC(=O)OCCCCC)cc3)CC2)cc1 (centres unmarked) [Comparative Compound 3] | – | – | – | – | – | increases | increases | –
– | CCCOC(=O)/N=C(\N)c1ccc(OCCCC2CCN(CCCOc3ccc(/C(N)=N/C(=O)OCCC)cc3)CC2)cc1 [Example 1, 4-{3-[4-(3-{4-[amino(propoxycarbonylimino)methyl]phenoxy}propyl)-1-piperidinyl]propoxy}-N′-(propoxycarbonyl)benzamidine] | – | – | 100 | – | – | – | – | –
– | CC(C)OC(=O)/N=C(\N)c1ccc(OCCCC2CCN(CCCOc3ccc(/C(N)=N/C(=O)OC(C)C)cc3)CC2)cc1 [Example 2, 4-{3-[4-(3-{4-[amino(isopropoxycarbonylimino)methyl]phenoxy}propyl)-1-piperidinyl]propoxy}-N′-(isopropoxycarbonyl)benzamidine] | – | – | 100 | – | – | – | – | –
– | CCCCOC(=O)N=C(N)c1ccc(OCCCC2CCN(CCCOc3ccc(C(N)=NC(=O)OCCCC)cc3)CC2)cc1 [Example 3, 4-{3-[4-(3-{4-[amino(butoxycarbonylimino)methyl]phenoxy}propyl)-1-piperidinyl]propoxy}-N′-(butoxycarbonyl)benzamidine] | > 72 | 80 | – | > 72 | 45.4 | No abnormality | No abnormality | survival until day 2 after administration [3]: all mice survived; mice survived [4]: 60%; mice survived [5]: 80%; survival until day 2 after administration [6]: all mice survived
